This note sets out measurements from PMC5346462 (Biochimie, 2017).

Assay [1] addresses T1, MiGSTU (Mangifera indica glutathione S-transferase Tau class) (Mangifera indica, UniProt A0A1P8NWC2).
T1 sequence (A0A1P8NWC2 1-229): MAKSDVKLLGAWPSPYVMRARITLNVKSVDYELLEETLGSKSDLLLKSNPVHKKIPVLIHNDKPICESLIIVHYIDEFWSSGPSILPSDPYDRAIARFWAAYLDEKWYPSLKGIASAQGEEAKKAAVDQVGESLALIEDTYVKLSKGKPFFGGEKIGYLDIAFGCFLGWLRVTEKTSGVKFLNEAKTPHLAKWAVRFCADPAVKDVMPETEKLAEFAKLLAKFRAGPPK
The experiment in a line: steady-state enzyme kinetics of the purified enzyme. It is filed as biochemical. The settings on record: read-out: CDNB / Km.

The target in assay [2] is Mangifera indica glutathione S-transferase Tau class (MiGSTU) (mango (Mangifera indica)). The experiment in a line: SEC.

As for `O=[N+]([O-])c1ccc(Cl)c([N+](=O)[O-])c1` [CDNB], the Km in assay [1] was determined as 792 µM.

Usually stoichiometry N stands for a count of units in the complex or per binding partner. Compound “Mangifera indica glutathione S-transferase Tau class (MiGSTU) (enzyme)” came in with a stoichiometry N in assay [2] of 2.
